Earlier results in US20240166971A1, “CONTACT LENS TREATING SOLUTION” (Bausch + Lomb Ireland Limited, priority 2022, published 2024).

Test system: Gram-positive bacteria
Settings: known property

## CCCCC(CC)COCC(O)CO (stereo not shown) [EHOPD, 3-[(2-ethylhexyl)oxy]-1,2-propanediol]
  antimicrobial activity: exhibit antimicrobial activity
